Tested on: βarr1/2
Assay: DSF with IP6 and/or Cmpd-5
Type: binding
Description: DSF assay was performed to identify β-arrestin-binding small molecules from the drug-like compound library (DDLC) described above. The screen was conducted using the StepOnePlus Real-Time PCR System (Applied Biosystems) with the fluorescent reporter probe SYPRO Orange (Thermo Fisher Scientific) in a 96-well format. Proteins were buffered in 20 mM HEPES (pH 7.5) with 100 mM NaCl. Small molecules (100 μM) were screened with either βARR1 or βARR2 (5 μM). DMSO was used as a vehicle control, and V2Rpp (50 μM) served as a positive control.
For DSF experiments involving the three positive control ligands (V2Rpp, IP6 and heparin, each at 50 μM) binding to β-arrestins, HEPES buffer was used as the vehicle control. Excitation and emission filters for SYPRO Orange were set to 475 nm and 580 nm, respectively. The temperature was increased by 0.5 °C every 30 s, from 25 °C to 99 °C, with fluorescence readings taken at each interval. Raw DSF data were analysed using Applied Biosystems Protein Thermal Shift Software. Fluorescence intensities were plotted as a function of temperature, and the midpoint of transition, or melting temperature (Tm), was calculated by plotting the first derivative of fluorescence emission as a function of temperature (dF/dT). […]

C=C1C(=O)[C@]23[C@H](O)[C@H]1CC[C@H]2[C@@]12CO[C@]3(O)[C@@H](O)[C@@H]1C(C)(C)CC[C@@H]2O [Cmpd-5, (1S,4aR,5S,6S,6aR,9S,11aS,11bS,14R)-1,5,6,14-tetrahydroxy−4,4-dimethyl-8-methylenedecahydro-1H-6,11b-(epoxymethano)-6a,9-methanocyclohepta[a]naphthalen-7(8H)-one]
effect on IP6-stabilized β-arrestin state by DSF: shifts βarr1/2 away from the IP6-stabilized active state

— PMC13489962, “Small-molecule modulation of β-arrestins” (Nature, 2026)
